PubChem BioAssay (NCI)
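These data come from cells grown in 96-well plates and exposed to compound for 48 hours at five concentrations. Here, GI50 denotes the concentration required for 50% inhibition of growth. At the TGI there is no net growth.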

Tests used:
Experiment in all cases: growth of human tumour cells (NCI), 48 h
[1] = test system: 786-0 renal
[2] = test system: A498 renal
[3] = test system: A549 NSCLC
[4] = test system: ACHN renal
[5] = test system: BT-549 breast
[6] = test system: CAKI-1 renal
[7] = test system: CCRF-CEM leukemia
[8] = test system: COLO 205 colon
[9] = test system: DU-145 prostate
[10] = test system: EKVX NSCLC
[11] = test system: HCC-2998 colon
[12] = test system: HCT-116 colon
[13] = test system: HCT-15 colon
[14] = test system: HL-60(TB) leukemia
[15] = test system: HOP-62 NSCLC
[16] = test system: HOP-92 NSCLC
[17] = test system: HS 578T breast
[18] = test system: HT29 colon
[19] = test system: IGROV1 ovarian
[20] = test system: K-562 leukemia
[21] = test system: KM12 colon
[22] = test system: LOX IMVI melanoma
[23] = test system: M14 melanoma
[24] = test system: MALME-3M melanoma
[25] = test system: MCF7 breast
[26] = test system: MDA-MB-231 breast
[27] = test system: MOLT-4 leukemia
[28] = test system: NCI-H226 lung
[29] = test system: NCI-H23 lung
[30] = test system: NCI-H460 lung
[31] = test system: NCI-H522 lung
[32] = test system: NCI/ADR-RES ovarian
[33] = test system: OVCAR-4 ovarian
[34] = test system: OVCAR-5 ovarian
[35] = test system: OVCAR-8 ovarian
[36] = test system: PC-3 prostate
[37] = test system: RPMI-8226 leukemia
[38] = test system: RXF 393 renal
[39] = test system: SF-268 CNS
[40] = test system: SF-295 CNS
[41] = test system: SF-539 CNS
[42] = test system: SK-MEL-2 melanoma
[43] = test system: SK-MEL-28 melanoma
[44] = test system: SK-MEL-5 melanoma
[45] = test system: SK-OV-3 ovarian
[46] = test system: SN12C renal
[47] = test system: SNB-19 CNS
[48] = test system: SNB-75 CNS
[49] = test system: SR leukemia
[50] = test system: SW-620 colon
[51] = test system: T-47D breast
[52] = test system: TK-10 renal
[53] = test system: U251 CNS
[54] = test system: UACC-257 melanoma
[55] = test system: UACC-62 melanoma
[56] = test system: UO-31 renal

Which GI50 [1] does the source give for `COc1ccc(Cn2cc3c(c2-c2cc(OC)c(OC)c(OC)c2)CCc2c(CN4CCOCC4)noc2-3)cc1` here?
The GI50 was 668 nM.

And the TGI [1]?
The TGI was over 100000 nM.

And the GI50 [2]?
The GI50 was 305 nM.

What about the TGI [2] of the same compound?
Its TGI is 1030 nM.

What about the GI50 [3] of the same compound?
Its GI50 is 1130 nM.

And the TGI [3]?
Its TGI is over 100000 nM.

And the GI50 [4]?
The GI50 was 718 nM.

What about the TGI [4] of the same compound?
The TGI was over 100000 nM.

And the GI50 [5]?
The GI50 was 1140 nM.

What about the TGI [5] of the same compound?
Its TGI is 4970 nM.

What about the GI50 [6] of the same compound?
Its GI50 is 565 nM.

And the TGI [6]?
Its TGI is over 100000 nM.

And the GI50 [7]?
The GI50 was 1070 nM.

And the TGI [7]?
The TGI was over 100000 nM.

What about the GI50 [8] of the same compound?
Its GI50 is 1230 nM.

And the TGI [8]?
Its TGI is 6080 nM.

What about the GI50 [9] of the same compound?
Its GI50 is 2190 nM.

And the TGI [9]?
The TGI was over 100000 nM.

What about the GI50 [10] of the same compound?
The GI50 was 1350 nM.

And the TGI [10]?
The TGI was over 100000 nM.

What about the GI50 [11] of the same compound?
The GI50 was 1740 nM.

And the TGI [11]?
The TGI was over 100000 nM.

What about the GI50 [12] of the same compound?
Its GI50 is 443 nM.

And the TGI [12]?
Its TGI is over 100000 nM.

And the GI50 [13]?
Its GI50 is 457 nM.

And the TGI [13]?
Its TGI is over 100000 nM.

And the GI50 [14]?
Its GI50 is 387 nM.

What about the TGI [14] of the same compound?
Its TGI is 13100 nM.

And the GI50 [15]?
The GI50 was 1030 nM.

And the TGI [15]?
Its TGI is over 100000 nM.

And the GI50 [16]?
The GI50 was 667 nM.

What about the TGI [16] of the same compound?
Its TGI is over 100000 nM.

What about the GI50 [17] of the same compound?
The GI50 was 432 nM.

What about the TGI [17] of the same compound?
Its TGI is over 100000 nM.

And the GI50 [18]?
The GI50 was 637 nM.

What about the TGI [18] of the same compound?
The TGI was over 100000 nM.

And the GI50 [19]?
The GI50 was 871 nM.

And the TGI [19]?
Its TGI is over 100000 nM.

What about the GI50 [20] of the same compound?
Its GI50 is 399 nM.

And the TGI [20]?
The TGI was over 100000 nM.

And the GI50 [21]?
The GI50 was 435 nM.

And the TGI [21]?
Its TGI is over 100000 nM.

What about the GI50 [22] of the same compound?
The GI50 was 446 nM.

And the TGI [22]?
Its TGI is over 100000 nM.

And the GI50 [23]?
The GI50 was 555 nM.

And the TGI [23]?
Its TGI is over 100000 nM.

What about the GI50 [24] of the same compound?
The GI50 was 495 nM.

What about the TGI [24] of the same compound?
Its TGI is over 100000 nM.

What about the GI50 [25] of the same compound?
The GI50 was 362 nM.

What about the TGI [25] of the same compound?
The TGI was over 100000 nM.

And the GI50 [26]?
Its GI50 is 2810 nM.

And the TGI [26]?
Its TGI is over 100000 nM.

And the GI50 [27]?
The GI50 was 2590 nM.

And the TGI [27]?
The TGI was over 100000 nM.

And the GI50 [28]?
Its GI50 is 821 nM.

And the TGI [28]?
Its TGI is over 100000 nM.

What about the GI50 [29] of the same compound?
Its GI50 is 1850 nM.

What about the TGI [29] of the same compound?
Its TGI is over 100000 nM.

And the GI50 [30]?
The GI50 was 506 nM.

And the TGI [30]?
Its TGI is over 100000 nM.

What about the GI50 [31] of the same compound?
Its GI50 is 269 nM.

And the TGI [31]?
Its TGI is 816 nM.

And the GI50 [32]?
Its GI50 is 450 nM.

And the TGI [32]?
Its TGI is over 100000 nM.

What about the GI50 [33] of the same compound?
The GI50 was 18600 nM.

And the TGI [33]?
The TGI was over 100000 nM.

And the GI50 [34]?
Its GI50 is 3220 nM.

What about the TGI [34] of the same compound?
The TGI was over 100000 nM.

And the GI50 [35]?
Its GI50 is 1800 nM.

What about the TGI [35] of the same compound?
The TGI was over 100000 nM.

And the GI50 [36]?
The GI50 was 550 nM.

What about the TGI [36] of the same compound?
Its TGI is over 100000 nM.

And the GI50 [37]?
The GI50 was 1160 nM.

And the TGI [37]?
Its TGI is over 100000 nM.

And the GI50 [38]?
Its GI50 is 382 nM.

What about the TGI [38] of the same compound?
The TGI was over 100000 nM.

And the GI50 [39]?
Its GI50 is 870 nM.

What about the TGI [39] of the same compound?
The TGI was over 100000 nM.

And the GI50 [40]?
Its GI50 is 426 nM.

What about the TGI [40] of the same compound?
Its TGI is over 100000 nM.

What about the GI50 [41] of the same compound?
Its GI50 is 448 nM.

And the TGI [41]?
Its TGI is over 100000 nM.

And the GI50 [42]?
Its GI50 is 549 nM.

And the TGI [42]?
Its TGI is over 100000 nM.

What about the GI50 [43] of the same compound?
Its GI50 is over 47700 nM.

And the TGI [43]?
The TGI was over 100000 nM.

What about the GI50 [44] of the same compound?
Its GI50 is 1150 nM.

What about the TGI [44] of the same compound?
Its TGI is 14300 nM.

And the GI50 [45]?
The GI50 was 1470 nM.

And the TGI [45]?
The TGI was over 100000 nM.

What about the GI50 [46] of the same compound?
Its GI50 is 3670 nM.

And the TGI [46]?
Its TGI is over 100000 nM.

What about the GI50 [47] of the same compound?
The GI50 was 1150 nM.

What about the TGI [47] of the same compound?
Its TGI is over 100000 nM.

And the GI50 [48]?
Its GI50 is 308 nM.

And the TGI [48]?
Its TGI is over 100000 nM.

And the GI50 [49]?
Its GI50 is 350 nM.

What about the TGI [49] of the same compound?
The TGI was over 100000 nM.

And the GI50 [50]?
The GI50 was 458 nM.

What about the TGI [50] of the same compound?
The TGI was over 100000 nM.

What about the TGI [51] of the same compound?
Its TGI is over 100000 nM.

And the GI50 [52]?
Its GI50 is over 100000 nM.

And the TGI [52]?
The TGI was over 100000 nM.

What about the GI50 [53] of the same compound?
Its GI50 is 779 nM.

And the TGI [53]?
Its TGI is over 100000 nM.

What about the GI50 [54] of the same compound?
The GI50 was 963 nM.

What about the TGI [54] of the same compound?
Its TGI is over 100000 nM.

What about the GI50 [55] of the same compound?
The GI50 was 488 nM.

And the TGI [55]?
The TGI was over 100000 nM.

And the GI50 [56]?
The GI50 was 674 nM.

What about the TGI [56] of the same compound?
The TGI was over 100000 nM.
